# System: HeLa-Parkin or HeLa-Parkin/USP30 cells
# Assay: Mitochondrial membrane potential (TMRM signal)
# Format: cell-based
# Conditions: FCCP 10 μM
# Protocol: ΔΨm was measured using a fluorescence microplate reader (BioTek Instruments) in cells preincubated with Tetramethylrhodamine methyl ester (TMRM, Thermo Scientific) following manufacturer's instructions. Cells were washed in PBS before resuspension in Hank's balanced salt solution (HBSS; 156 mM NaCl, 3 mM KCl, 2 mM MgSO4, 1.25 mM KH2PO4, 2 mM CaCl2), 10 mM glucose and 10 mM HEPES; pH adjusted to 7.35 with NaOH) (1.0×10^6 cells/ml) containing 50 nM TMRM. For each individual experiment, average TMRM fluorescence was normalized to control cells.
# We initially analyzed mitochondrial function using Tetramethylrhodamine (TMRM), a dye requiring mitochondrial membrane potential to accumulate within the mitochondria.
smiles,measurement,value
"N#CC(C#N)=NNc1ccc(OC(F)(F)F)cc1 [FCCP, Carbonyl cyanide-p-trifluoromethoxyphenylhydrazone, reference compound]",TMRM staining (mitochondrial membrane potential),significant loss of staining

# From patent US20260373103A1, “COMPOSITIONS AND METHODS FOR PREVENTING CARDIOMYOPATHY” (OHIO STATE INNOVATION FOUNDATION, priority 2022, published 2026)
